These results are taken from ChEMBL document CHEMBL5375978, “Harnessing the Reactivity of Duclauxin toward Obtaining hPTP1B1-400 Inhibitors” (J Med Chem, 2023).

Data set [1] can be described thus: Acute toxicity in Swiss Webster mouse assessed as lethal dose. As to conditions: in vivo.
Data set [2] in a line: Acute toxicity in Swiss Webster mouse assessed as change in heart rate at 30 to 300 mg/kg, po and measured for 2 hrs. The format is organism-based. The following applies: in vivo, dose 30-300 mg/kg.
The nature of data set [3]: Acute toxicity in Swiss Webster mouse assessed as effect on body weight loss at 30 to 300 mg/kg, po and measured after 14 days. The format is organism-based. The following applies: in vivo, 336 h, dose 30-300 mg/kg, time 14 day.
A short description of data set [4]: Acute toxicity in Swiss Webster mouse assessed as ataxia at 30 to 300 mg/kg, po and measured for 2 hrs. It is filed as organism-based. The following applies: in vivo, dose 30-300 mg/kg.
Data set [5] can be described thus: Acute toxicity in Swiss Webster mouse assessed as macroscopic damage in internal organs at 30 to 300 mg/kg, po and measured after 14 days. The format is organism-based. As to conditions: in vivo, 336 h, dose 30-300 mg/kg, time 14 day.
The species entered for data set [6] is Mus musculus. Description: Hypoglycemic activity in Swiss Webster mouse assessed as reduction in blood glucose level preincubated for 30 mins followed by insulin dose and measured at upto 120 mins by insulin tolerance test. It is filed as functional, organism-based. The following applies: time <= 150.0 min.
Data set [7] concerns Mus musculus. The data set can be described thus: Hypoglycemic activity in Swiss Webster mouse assessed as reduction in blood glucose level at 3 to 30 mg/kg preincubated for 30 mins followed by insulin dose and measured after 60 to 120 mins by insulin tolerance test. It is filed as functional, organism-based. The following applies: dose 3-30 mg/kg, time 90-150 min.
A short description of data set [8]: Acute toxicity in Swiss Webster mouse assessed as hyperactivity at 30 to 300 mg/kg, po and measured for 2 hrs. The format is organism-based. The following applies: in vivo, dose 30-300 mg/kg.
The target in data set [9] is T1, Tyrosine-protein phosphatase non-receptor type 1 (Homo sapiens) (UniProt P18031).
T1 sequence (whole entry): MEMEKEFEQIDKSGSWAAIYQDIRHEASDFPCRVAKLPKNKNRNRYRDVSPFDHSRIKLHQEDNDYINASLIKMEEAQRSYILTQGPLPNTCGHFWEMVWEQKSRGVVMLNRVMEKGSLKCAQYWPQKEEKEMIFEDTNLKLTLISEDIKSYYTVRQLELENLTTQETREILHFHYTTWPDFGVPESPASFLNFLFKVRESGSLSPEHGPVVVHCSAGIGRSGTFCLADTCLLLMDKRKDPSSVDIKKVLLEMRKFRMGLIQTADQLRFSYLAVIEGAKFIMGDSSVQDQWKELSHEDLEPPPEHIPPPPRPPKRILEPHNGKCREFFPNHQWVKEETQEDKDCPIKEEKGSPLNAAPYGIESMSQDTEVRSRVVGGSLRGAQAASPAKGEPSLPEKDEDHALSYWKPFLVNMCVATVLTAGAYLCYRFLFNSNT
Description: Binding affinity to wild type N-terminal 6 his tagged human PTP1B (1 to 400 residues) expressed in Escherichia coli (Rosetta, DE3) assessed as affinity constant by fluorescence based analysis.

The nature of data set [10]: Acute toxicity in Swiss Webster mouse assessed as loss of motor activity at 30 to 300 mg/kg, po and measured for 2 hrs. The format is organism-based. As to conditions: in vivo, dose 30-300 mg/kg.
Data set [11] is described as follows: Acute toxicity in Swiss Webster mouse assessed as animal death at 30 to 300 mg/kg, po and measured for 2 hrs. It is filed as organism-based. As to conditions: in vivo, dose 30-300 mg/kg.
A short description of data set [12]: Acute toxicity in Swiss Webster mouse assessed as animal death at 30 to 300 mg/kg, po and measured after 14 days. It is filed as organism-based. The following applies: in vivo, 336 h, dose 30-300 mg/kg, time 14 day.
A short description of data set [13]: Acute toxicity in Swiss Webster mouse assessed as sedation at 30 to 300 mg/kg, po and measured for 2 hrs. The following applies: in vivo, dose 30-300 mg/kg. It is filed as organism-based.
The target of data set [14] is T2, Tyrosine-protein phosphatase non-receptor type 1 (Homo sapiens, UniProt P18031).
T2 sequence (P18031 whole entry): T1 sequence (whole entry)
The data set can be described thus: Inhibition of wild type N-terminal 6 his tagged human PTP1B (1 to 400 residues) expressed in Escherichia coli (Rosetta, DE3) using p-NPP as substrate preincubated for 10 mins followed by substrate addition and measured after 20 mins by absorbance based analysis.

The nature of data set [15]: Acute toxicity in Swiss Webster mouse assessed as animal death at 10 to 500 mg/kg, po and measured after 14 days. The following applies: in vivo, 336 h, dose 10-500 mg/kg, time 14 day. It is filed as organism-based.
Data set [16] in a line: Acute toxicity in Swiss Webster mouse assessed as animal death at 10 to 500 mg/kg, po and measured for 2 hrs. The format is organism-based. The following applies: in vivo, dose 10-500 mg/kg.
Data set [17] can be described thus: Acute toxicity in Swiss Webster mouse assessed as loss of motor activity at 10 to 500 mg/kg, po and measured for 2 hrs. It is filed as organism-based. The following applies: in vivo, dose 10-500 mg/kg.
Data set [18] in a line: Acute toxicity in Swiss Webster mouse assessed as change in heart rate at 10 to 500 mg/kg, po and measured for 2 hrs. It is filed as organism-based. The following applies: in vivo, dose 10-500 mg/kg.
Data set [19] is described as follows: Acute toxicity in Swiss Webster mouse assessed as ataxia at 10 to 500 mg/kg, po and measured for 2 hrs. It is filed as organism-based. As to conditions: in vivo, dose 10-500 mg/kg.
The nature of data set [20]: Acute toxicity in Swiss Webster mouse assessed as effect on body weight loss at 10 to 500 mg/kg, po and measured after 14 days. It is filed as organism-based. As to conditions: in vivo, 336 h, dose 10-500 mg/kg, time 14 day.
Data set [21] is described as follows: Acute toxicity in Swiss Webster mouse assessed as macroscopic damage in internal organs at 10 to 500 mg/kg, po and measured after 14 days. The format is organism-based. The following applies: in vivo, 336 h, dose 10-500 mg/kg, time 14 day.
Data set [22] can be described thus: Acute toxicity in Swiss Webster mouse assessed as hyperactivity at 10 to 500 mg/kg, po and measured for 2 hrs. It is filed as organism-based. As to conditions: in vivo, dose 10-500 mg/kg.
Data set [23] can be described thus: Acute toxicity in Swiss Webster mouse assessed as sedation at 10 to 500 mg/kg, po and measured for 2 hrs. The format is organism-based. The following applies: in vivo, dose 10-500 mg/kg.

Active and inactive are the calls of the source. The calls are words filed in the database; no cut-off is given here.

In general, LD50 refers to the dose at which mortality reaches 50%. As usually defined, the IC50 is the concentration needed to halve the response being measured. Higher therefore signals lower potency. Consider `CC(=O)O[C@H]1[C@@H]2C(=O)c3c(C)cc(O)c4c3[C@@]1(COC4=O)C1=C2c2c(C)cc(O)c3c(=O)n(-c4ccc([N+](=O)[O-])cc4)cc(c23)C1=O`, for which the 50% lethal dose (LD50) in [1] was 300 mg/kg. Moreover, the Activity result in data set [2] was “Non-Toxic”; in [3], “Non-Toxic”; in data set [4], “Non-Toxic”; in [5] it was “Non-Toxic”; in the data set listed under Mus musculus [6], “Dose-Dependent Effect”; in data set [8], “Non-Toxic”. For the same molecule, the Activity result in [10], in data set [11], in data set [12] and in [13] was “Non-Toxic” throughout. For the same molecule, the result in the data set with Mus musculus [7] was Active. For the same molecule, the Ka in [9] was 2.9 10^5/M. The IC50 in [14] worked out at 3.1 µM.
As for `CO[C@@]12c3c(C)cc(O)c4c(=O)occ(c34)C(=O)[C@@H]1[C@]13COC(=O)c4c(O)cc(C)c(c41)C(=O)[C@H]2[C@@H]3OC(C)=O`, the 50% lethal dose (LD50) in [1] came to 500 mg/kg. Further, the Activity result in data set [15], in data set [16], in data set [17], in data set [18], in data set [19] and in data set [20] was “Non-Toxic” in each case. Besides, the Activity result in data set [21], in [22] and in data set [23] was “Non-Toxic” each time. For the same molecule, in [9], the Ka is 2 10^5/M. Moreover, the IC50 in data set [14] amounted to 35.6 µM.
